Measured values reported in patent US9670250B2, “Alpha-helical peptidomimetic inhibitors and methods using same” (The Trustees of the University of Pennsylvania, priority 2012, dated 2017).
Starred links: 1 amine or outer side, 2 acyl side, 3 side chain; linkers in the order of their positions; H or OH if unused. Positions of bridges follow the written chain, without caps; N, C: chain ends. Residues, ends and D or L forms follow the SMILES beside them. mXylylene = c1cc(C[*:1])cc(C[*:2])c1

What was measured:
Format in all cases: biochemical
Cathepsin L = Cathepsin L (Homo sapiens, UniProt P07711); assay: in vitro fluorescence-based protease inhibition assay, cathepsin L; conditions: for Ki: Table 4, calpain inhibitors
Source text: (§1) Thus, the present invention includes a series of potent and highly specific α-helical inhibitors for papain family cysteine proteases. […] These short α-helical peptidomimetic inhibitors are modeled after the natural pro-domain sequence but contain a cysteine substitution at specific residues in i,i+4 positions, as shown in FIG. 2B. These cysteine residues are used for stabilization of the helix utilizing an appropriate linker (Muppidi, et al., 2011, Chem Commun (Camb) 47:9396-9398). After synthesis, each inhibitor was tested against its respective protease using an in vitro fluorescence-based assay. For each enzyme, at least one inhibitor was identified that is relatively potent and highly specific for its individual protease. These inhibitors can be modified or otherwise optimized to attain higher potency and selectivity through identification of key interactions between the inhibitor and the active site amino acid residues. Such optimization involves visual examination of the protease crystal structure, and substitution with either non-natural or natural amino acids to exploit possible crucial non-covalent protein ligand interactions, such as hydrogen bond, electrostatic, hydrophobic, and Van der Waals interactions.

Calpain (Calpain-1) = molecular target: T1, Calpain (Calpain-1) (Homo sapiens, UniProt P07384); assay: in vitro fluorescence-based protease inhibition assay, calpain
T1 sequence (P07384 1-714): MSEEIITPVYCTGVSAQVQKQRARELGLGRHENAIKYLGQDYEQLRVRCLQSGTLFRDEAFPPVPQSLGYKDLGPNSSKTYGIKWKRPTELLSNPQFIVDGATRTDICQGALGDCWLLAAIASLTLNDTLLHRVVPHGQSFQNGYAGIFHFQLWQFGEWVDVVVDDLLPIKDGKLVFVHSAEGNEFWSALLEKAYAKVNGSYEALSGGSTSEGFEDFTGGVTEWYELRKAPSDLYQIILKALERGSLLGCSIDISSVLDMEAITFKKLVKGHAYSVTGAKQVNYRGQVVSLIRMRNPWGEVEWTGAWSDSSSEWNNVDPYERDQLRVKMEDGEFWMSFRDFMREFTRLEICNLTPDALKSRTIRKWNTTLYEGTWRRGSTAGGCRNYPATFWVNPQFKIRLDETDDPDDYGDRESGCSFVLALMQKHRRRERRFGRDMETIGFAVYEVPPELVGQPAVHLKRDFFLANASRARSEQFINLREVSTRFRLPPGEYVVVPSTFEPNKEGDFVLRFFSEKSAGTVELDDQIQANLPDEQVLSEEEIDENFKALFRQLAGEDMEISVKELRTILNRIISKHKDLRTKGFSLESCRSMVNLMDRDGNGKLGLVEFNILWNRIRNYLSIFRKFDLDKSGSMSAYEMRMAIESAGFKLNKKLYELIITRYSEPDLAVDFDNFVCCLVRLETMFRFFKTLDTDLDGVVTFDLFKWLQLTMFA
T1 sequence (P04632 1-268 partner): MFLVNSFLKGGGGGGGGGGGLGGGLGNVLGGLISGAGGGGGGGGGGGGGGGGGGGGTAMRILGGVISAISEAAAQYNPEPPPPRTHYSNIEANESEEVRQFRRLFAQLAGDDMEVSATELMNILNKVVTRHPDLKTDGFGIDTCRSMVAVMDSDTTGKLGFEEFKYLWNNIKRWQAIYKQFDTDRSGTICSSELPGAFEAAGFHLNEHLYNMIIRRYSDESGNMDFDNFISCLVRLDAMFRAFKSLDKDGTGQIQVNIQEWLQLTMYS
Source text: as §1

Cathepsin K = molecular target: T2, Cathepsin K (Homo sapiens, UniProt P43235); assay: in vitro fluorescence-based protease inhibition assay, cathepsin K
T2 sequence (P43235 115-329): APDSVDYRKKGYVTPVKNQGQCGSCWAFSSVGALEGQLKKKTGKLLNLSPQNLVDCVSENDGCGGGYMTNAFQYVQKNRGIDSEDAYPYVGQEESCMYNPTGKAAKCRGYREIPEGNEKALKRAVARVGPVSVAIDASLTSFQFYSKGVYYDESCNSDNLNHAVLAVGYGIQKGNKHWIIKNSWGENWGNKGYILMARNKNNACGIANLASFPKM
Source text: as §1

[1] = Table 2, cathepsin S inhibitors

Cathepsin L, sequence (P07711 114-333, species assumed): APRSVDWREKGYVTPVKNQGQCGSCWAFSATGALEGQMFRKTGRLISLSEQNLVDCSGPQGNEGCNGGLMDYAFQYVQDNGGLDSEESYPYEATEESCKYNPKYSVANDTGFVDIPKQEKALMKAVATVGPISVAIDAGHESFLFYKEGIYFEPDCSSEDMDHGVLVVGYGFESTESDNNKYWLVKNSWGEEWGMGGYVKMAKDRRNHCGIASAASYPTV

SEEFRQVMNGF [SEQ ID NO:1, reference compound]
cathepsin L inhibitory activity, in words (Cathepsin L): no inhibitory activity

CSCC[C@@H]1NC(=O)[C@H](CC(C)C)NC(=O)[C@H](CO)NC(=O)[C@@H](NC(=O)[C@@H](NC(=O)[C@H](Cc2c[nH]c3ccccc23)NC(=O)[C@H](CCC(=O)O)NC(=O)[C@H](Cc2c[nH]c3ccccc23)NC(=O)[C@@H](N)Cc2c[nH]c3ccccc23)C(C)C)CSCc2cccc(c2)CSC[C@@H](C(=O)N[C@@H](CO)C(=O)O)NC1=O [compound 25] (H-WWEWVCSLMCS-OH; linker 6-10 via mXylylene; N-terminus and C-terminus assumed)
Ki (Calpain (Calpain-1); [1]): 85.5 ± 1.3 µM

CC[C@H](C)[C@H](N)C(=O)N1CCC[C@H]1C(=O)N1CCC[C@H]1C(=O)N[C@@H](CCCCN)C(=O)N[C@@H](Cc1ccc(O)cc1)C(=O)N[C@H]1CSCc2cccc(c2)CSC[C@@H](C(=O)O)NC(=O)[C@H](CC(C)C)NC(=O)[C@H](CC(C)C)NC(=O)[C@H](CCC(=O)O)NC1=O [compound 65]
Ki (Calpain (Calpain-1); Table 4, calpain inhibitors): 10.2 ± 2.9 µM
Ki (Cathepsin K; Table 4, calpain inhibitors): > 100 µM

35 (SCELVCKMTGL) [compound 35]
Cathepsin K activity (Cathepsin K; between 200-500 nM & 50 μM): 80% activity

CC(C)C[C@@H]1NC(=O)[C@H](CC(C)C)NC(=O)[C@H](CCC(=O)O)NC(=O)[C@@H](NC(=O)[C@H](Cc2ccc(O)cc2)NC(=O)[C@H](CCCCN)NC(=O)[C@@H]2CCCN2C(=O)[C@@H]2CCCN2C(=O)[C@H](C)N)CSCc2cccc(c2)CSC[C@@H](C(=O)O)NC1=O [compound 72] (H-APPKYCELLC-OH; linker 6-10 via mXylylene; N-terminus and C-terminus assumed)
Ki (Calpain (Calpain-1); Table 4, calpain inhibitors): 65.6 ± 20.5 µM
Ki (Cathepsin L): 12.5 ± 1.2 µM

SECFRQCMNGF [SEQ ID NO:2]
cathepsin L inhibitory activity, in words (Cathepsin L): low activity

CSCC[C@@H]1NC(=O)[C@H](CC(C)C)NC(=O)[C@H](CO)NC(=O)[C@@H](NC(=O)[C@@H](NC(=O)[C@H](Cc2c[nH]c3ccccc23)NC(=O)[C@H](CCC(=O)O)NC(=O)[C@H](Cc2c[nH]c3ccccc23)NC(=O)[C@@H](N)[C@@H](C)O)C(C)C)CSCc2cccc(c2)CSC[C@@H](C(=O)N[C@@H](CO)C(=O)O)NC1=O [compound 23] (H-TWEWVCSLMCS-OH; linker 6-10 via mXylylene; N-terminus and C-terminus assumed)
Ki (Calpain (Calpain-1); [1]): 88.4 ± 1.13 µM

CC(C)C[C@@H]1NC(=O)[C@H](CC(C)C)NC(=O)[C@H](CCC(=O)O)NC(=O)[C@@H](NC(=O)[C@H](Cc2ccc(O)cc2)NC(=O)[C@H](CCCCN)NC(=O)[C@@H]2CCCN2C(=O)[C@@H]2CCCN2C(=O)[C@@H](N)CCC(N)=O)CSCc2cccc(c2)CSC[C@@H](C(=O)O)NC1=O [compound 76] (H-QPPKYCELLC-OH; linker 6-10 via mXylylene; N-terminus and C-terminus assumed)
Ki (Calpain (Calpain-1); Table 4, calpain inhibitors): 35 ± 10.4 µM

CC[C@H](C)[C@H](N)C(=O)N1CCC[C@H]1C(=O)N1CCC[C@H]1C(=O)N[C@@H](CCCCN)C(=O)N[C@@H](Cc1ccc(O)cc1)C(=O)N[C@H]1CSCc2cccc(c2)CSC[C@@H](C(=O)O)NC(=O)[C@H](CC(C)C)NC(=O)[C@H](CCC(N)=O)NC(=O)[C@H](CCC(=O)O)NC1=O [compound 85] (H-IPPKYCEQLC-OH; linker 6-10 via mXylylene; N-terminus and C-terminus assumed)
Ki (Calpain (Calpain-1); Table 4, calpain inhibitors): 11 ± 3.6 µM
Ki (Cathepsin K; Table 4, calpain inhibitors): > 100 µM

CC[C@H](C)[C@H](N)C(=O)N1CCC[C@H]1C(=O)N1CCC[C@H]1C(=O)N[C@@H](CCCNC(=N)N)C(=O)N[C@@H](Cc1ccc(O)cc1)C(=O)N[C@H]1CSCc2cccc(c2)CSC[C@@H](C(=O)O)NC(=O)[C@H](CC(C)C)NC(=O)[C@H](CC(C)C)NC(=O)[C@H](CCC(=O)O)NC1=O [compound 80] (H-IPPRYCELLC-OH; linker 6-10 via mXylylene; N-terminus and C-terminus assumed)
Ki (Calpain (Calpain-1); Table 4, calpain inhibitors): 5.3 ± 2 µM
Ki (Cathepsin K; Table 4, calpain inhibitors): > 100 µM

CC[C@H](C)[C@H](N)C(=O)N1CCC[C@H]1C(=O)N1CCC[C@H]1C(=O)N[C@@H](CCCCN)C(=O)N[C@@H](C)C(=O)N[C@H]1CSCc2cccc(c2)CSC[C@@H](C(=O)O)NC(=O)[C@H](CC(C)C)NC(=O)[C@H](CC(C)C)NC(=O)[C@H](CCC(=O)O)NC1=O [compound 81] (H-IPPKACELLC-OH; linker 6-10 via mXylylene; N-terminus and C-terminus assumed)
Ki (Calpain (Calpain-1); Table 4, calpain inhibitors): > 100 µM

CSCC[C@@H]1NC(=O)[C@H](CC(C)C)NC(=O)[C@H](CO)NC(=O)[C@@H](NC(=O)[C@@H](NC(=O)[C@H](CCC(=O)O)NC(=O)[C@H](CCC(=O)O)NC(=O)[C@H](CO)NC(=O)[C@@H](N)Cc2c[nH]c3ccccc23)C(C)C)CSCc2cccc(c2)CSC[C@@H](C(=O)N[C@@H](CO)C(=O)O)NC1=O [compound 17] (H-WSEEVCSLMCS-OH; linker 6-10 via mXylylene; N-terminus and C-terminus assumed)
Ki (Calpain (Calpain-1); [1]): 108 ± 1.28 µM
Ki (Cathepsin K; [1]): > 100 µM

CC(C)C[C@@H]1NC(=O)[C@H](CC(C)C)NC(=O)[C@H](CCC(=O)O)NC(=O)[C@@H](NC(=O)[C@H](Cc2ccc(O)cc2)NC(=O)[C@H](CCCCN)NC(=O)[C@@H]2CCCN2C(=O)[C@@H]2CCCN2C(=O)[C@@H](N)CC(C)C)CSCc2cccc(c2)CSC[C@@H](C(=O)O)NC1=O [compound 74] (H-LPPKYCELLC-OH; linker 6-10 via mXylylene; N-terminus and C-terminus assumed)
Ki (Calpain (Calpain-1); Table 4, calpain inhibitors): 11 ± 3.6 µM
Ki (Cathepsin K; Table 4, calpain inhibitors): > 100 µM

CC[C@H](C)[C@H](N)C(=O)N1CCC[C@H]1C(=O)N1CCC[C@H]1C(=O)N[C@@H](CCCCN)C(=O)N[C@@H](Cc1ccc(O)cc1)C(=O)N[C@H]1CSCc2cccc(c2)CSC[C@@H](C(=O)O)NC(=O)[C@H](CC(C)C)NC(=O)[C@H](CC(C)C)NC(=O)[C@H](C)NC1=O [compound 84] (H-IPPKYCALLC-OH; linker 6-10 via mXylylene; N-terminus and C-terminus assumed)
Ki (Calpain (Calpain-1); Table 4, calpain inhibitors): 28.9 ± 9.1 µM
Ki (Cathepsin L): 12.5 ± 1.1 µM

CC[C@H](C)[C@H](N)C(=O)N1CCC[C@H]1C(=O)N1CCC[C@H]1C(=O)N[C@@H](CCCCN)C(=O)N[C@@H](Cc1ccc(O)cc1)C(=O)N[C@H]1CSCc2cccc(c2)CSC[C@@H](C(=O)O)NC(=O)[C@H](CC(C)C)NC(=O)[C@H](C)NC(=O)[C@H](CCC(=O)O)NC1=O [compound 86] (H-IPPKYCEALC-OH; linker 6-10 via mXylylene; N-terminus and C-terminus assumed)
Ki (Calpain (Calpain-1); Table 4, calpain inhibitors): 30.9 ± 9.2 µM

CSCC[C@H](NC(=O)[C@H](CCCCN)NC(=O)[C@H](CCC(N)=O)NC(=O)[C@@H](NC(=O)[C@@H](NC(=O)[C@H](CCC(=O)O)NC(=O)[C@H](CCC(=O)O)NC(=O)[C@@H](N)CO)C(C)C)C(C)C)C(=O)N[C@H](C(=O)NCC(=O)N[C@@H](CC(C)C)C(=O)O)[C@@H](C)O [SEQ ID NO:32, SEEVVQKMTGL, reference compound] (H-SEEVVQKMTGL-OH)
effect on cathepsin K (inhibition or activation), in words (Cathepsin K): did not inhibit

CC[C@H](C)[C@H](NC(=O)[C@@H](NC(=O)[C@@H](NC(=O)[C@@H](N)CCC(=O)O)C(C)C)[C@@H](C)O)C(=O)N1CCC[C@H]1C(=O)N1CCC[C@H]1C(=O)N[C@@H](CCCCN)C(=O)N[C@@H](Cc1ccc(O)cc1)C(=O)N[C@H]1CSCc2cccc(c2)CSC[C@@H](C(=O)O)NC(=O)[C@H](CC(C)C)NC(=O)[C@H](CC(C)C)NC(=O)[C@H](CCC(=O)O)NC1=O [compound 69] (H-EVTIPPKYCELLC-OH; linker 9-13 via mXylylene; N-terminus and C-terminus assumed)
Ki (Calpain (Calpain-1); Table 4, calpain inhibitors): 5.3 ± 1.9 µM
Ki (Cathepsin K; Table 4, calpain inhibitors): > 100 µM
